# In PMC9854762, “Antibiofilm and Anti-Quorum-Sensing Activities of Novel Pyrazole and Pyrazolo[1,5-a]pyrimidine Derivatives as Carbonic Anhydrase I and II Inhibitors: Design, Synthesis, Radiosterilization, and Molecular Docking Studies” (Antibiotics, 2023):
# Like-named read-outs stand apart in the source and are kept apart here.
# Legend:
# P. aeruginosa DH-5698 [1] = assay: Agar well-diffusion assay; format: cell-based, Pseudomonus aeruginosa; details: Pseudomonas aeruginosa, DH5698; P. aeruginosa DH-5698; 50 µL of 10 mM per well; read-out: Diameter of Inhibition Zones (AZOI)
# Experimental: (§1) The synthesized compounds were initially screened for their in vitro antibacterial activity against the different Gram-positive and Gram-negative bacteria, tested using the agar well-diffusion assay. The turbidity of the bacterial suspensions was established to the 0.5 McFarland turbidity standard. The activity was performed on TS agar plates. The bacteria were spread on the surface of the agar plates, and 10 mm wells were screwed into the agar plates. The assay was performed under aseptic conditions. An aliquot of 50 µL of each tested compound (10 mM) was added to the wells, and the plates were incubated overnight at 37 °C. Both Erythromycin and Amikacin antibiotic disks were used as positive control, while DMSO solvent was used as a negative control in this study. The diameters of inhibition zones were measured and recorded in mm. A comparative study of the synthesized compounds was determined. The experiment was performed in triplicates.
# E. coli DH-5987 [2] = assay: Agar well-diffusion assay; format: cell-based; details: Escherichia coli, DH5987, 50 µL of 10 mM per well, read-out: Diameter of Inhibition Zones (AZOI)
# Experimental: as §1
# S. aureus DH-432 [3] = assay: Agar well-diffusion assay; format: cell-based; details: Staphylococcus aureus
# Experimental: as §1
# S. pyogenes DH-3467 [4] = assay: Agar well-diffusion assay; format: cell-based; details: Streptococcus pyogenes
# Experimental: as §1
# E. faecalis DH-5478 [5] = assay: Agar well-diffusion assay; format: cell-based; details: Enterococcus faecalis
# Experimental: as §1
# A. baumannii DH-243 [6] = assay: Agar well-diffusion assay; format: cell-based; details: Acinetobacter baumannii, DH243; A. baumannii DH-243; 50 µL of 10 mM per well; read-out: Diameter of Inhibition Zones (AZOI)
# Experimental: as §1
# S. aureus DH-432 [7] = assay: Broth microdilution MIC/MBC; format: cell-based, Staphylococcus aureus; details: for MIC: Staphylococcus aureus, DH432, 24 h, read-out: MIC (Mean ± SEM); for MBC/MIC: value in brackets
# Experimental: (§2) The broth microdilution method was taken as a basis to detect the MICs of pyrazole compounds against tested clinical isolates, according to the Clinical Laboratory and Standards Institute guidelines. The broth cultures were used to prepare the bacterial inoculums, and the suspensions were adjusted to the standard 0.5 McFarland turbidity. Stock solutions of the synthesized pyrazoles were prepared in pure DMSO and further serially diluted with TS broth in the concentration range from 128 µg/mL to 0.0625 µg/mL. A well containing noninoculated TS broth, free of any antimicrobial agents, was also included to ensure the medium sterility, while Erythromycin and Amikacin served as positive controls. Bacterial growth was determined by adding 20 µL of 0.5% TTC (2,3,5-triphenyltetrazolium chloride) aqueous solution. […] All experiments were repeated three times. The bactericidal effect from each concentration of the pyrazole and pyrazolo[1,5-a]pyrimidine derivatives showing growth inhibition was further studied. For this study, a loopful of 5 µL was taken from each no-visible growth tube and streaked onto plates of TS agar.
# E. faecalis DH-5478 [8] = assay: Broth microdilution MIC/MBC; format: cell-based, Enterococcus faecalis; details: for MIC: Enterococcus faecalis, DH5478, 24 h, read-out: MIC (Mean ± SEM); for MBC/MIC: value in brackets
# Experimental: as §2
# S. pyogenes DH-3467 [9] = assay: Broth microdilution MIC/MBC; format: cell-based, Streptococcus pyogenes; details: for MIC: Streptococcus pyogenes, DH3467, 24 h, read-out: MIC (Mean ± SEM); for MBC/MIC: value in brackets
# Experimental: as §2
# E. coli DH-5987 [10] = assay: Broth microdilution MIC/MBC; format: cell-based, Escherichia coli; details: E. coli DH-5987; for MBC/MIC: value in brackets; for MIC: Escherichia coli, DH5987, 24 h, read-out: MIC (Mean ± SEM)
# Experimental: as §2
# P. aeruginosa DH-5698 [11] = assay: Broth microdilution MIC/MBC; format: cell-based, Pseudomonus aeruginosa; details: for MIC: Pseudomonas aeruginosa, DH5698, 24 h, read-out: MIC (Mean ± SEM); for MBC/MIC: value in brackets
# Experimental: as §2
# A. baumannii DH-243 [12] = assay: Broth microdilution MIC/MBC; format: cell-based, Acinetobacter baumannii; details: for MIC: Acinetobacter baumannii, DH243, 24 h, read-out: MIC (Mean ± SEM); for MBC/MIC: value in brackets
# Experimental: as §2
# Gram-positive isolates = assay: Broth microdilution MIC/MBC, summary; format: cell-based; details: Gram-positive isolates (E. faecalis, S. aureus, S. pyogenes)
# Experimental: as §2
# [13] = DH432, S. aureus DH-432, 50 µL of 10 mM per well, read-out: Diameter of Inhibition Zones (AZOI)
# [14] = DH3467, S. pyogenes DH-3467, 50 µL of 10 mM per well, read-out: Diameter of Inhibition Zones (AZOI)
# [15] = DH5478, E. faecalis DH-5478, 50 µL of 10 mM per well, read-out: Diameter of Inhibition Zones (AZOI)
structure (smiles),measurement,setting,value
"CCOC(=O)c1ccc(N=Nc2c(N)nn3c(N)c(C#N)c(-c4ccc(OC)cc4)nc23)cc1 [Compound 9b, Ethyl-4-((2,7-diamino-6-cyano-5-(4-methoxyphenyl)pyrazolo[1,5-a]pyrimidin-3-yl)diazenyl)benzoate]",zone of inhibition at 10000 µM,P. aeruginosa DH-5698 [1],25.4 mm
same,zone of inhibition at 10000 µM,E. coli DH-5987 [2],26.5 mm
same,zone of inhibition at 10000 µM,S. aureus DH-432 [3]; [13],25 mm
same,zone of inhibition at 10000 µM,S. pyogenes DH-3467 [4]; [14],25.7 mm
same,zone of inhibition at 10000 µM,E. faecalis DH-5478 [5]; [15],24.3 mm
same,zone of inhibition at 10000 µM,A. baumannii DH-243 [6],23 mm
same,MIC,S. aureus DH-432 [7],1.5 ± 0.2 µg/mL
same,MBC/MIC,S. aureus DH-432 [7],1
same,MIC,E. faecalis DH-5478 [8],2 ± 0.2 µg/mL
same,MBC/MIC,E. faecalis DH-5478 [8],1
same,MIC,S. pyogenes DH-3467 [9],2 ± 0.3 µg/mL
same,MBC/MIC,S. pyogenes DH-3467 [9],0.5
same,MBC/MIC,E. coli DH-5987 [10],0.5
same,MIC,E. coli DH-5987 [10],1 ± 0.3 µg/mL
same,melting point,,210 to 212 °C
same,MIC,P. aeruginosa DH-5698 [11],1.5 ± 0.2 µg/mL
same,MBC/MIC,P. aeruginosa DH-5698 [11],0.5
same,MIC,A. baumannii DH-243 [12],2 ± 0.1 µg/mL
same,MBC/MIC,A. baumannii DH-243 [12],1
"CCOC(=O)c1ccc(N=Nc2c(N)nn3c(N)c(C#N)c(-c4ccc(Cl)cc4)nc23)cc1 [Compound 9c, Ethyl-4-((2,7-diamino-5-(4-chlorophenyl)-6-cyanopyrazolo[1,5-a]pyrimidin-3-yl)diazenyl)benzoate]",zone of inhibition at 10000 µM,P. aeruginosa DH-5698 [1],24.1 mm
same,zone of inhibition at 10000 µM,E. coli DH-5987 [2],25.2 mm
same,zone of inhibition at 10000 µM,S. aureus DH-432 [3]; [13],24.2 mm
same,zone of inhibition at 10000 µM,S. pyogenes DH-3467 [4]; [14],23.5 mm
same,zone of inhibition at 10000 µM,E. faecalis DH-5478 [5]; [15],23.1 mm
same,zone of inhibition at 10000 µM,A. baumannii DH-243 [6],23.9 mm
same,MIC,S. aureus DH-432 [7],2 ± 0.3 µg/mL
same,MBC/MIC,S. aureus DH-432 [7],1
same,MIC,E. faecalis DH-5478 [8],4 ± 0.2 µg/mL
same,MBC/MIC,E. faecalis DH-5478 [8],1
same,MIC,S. pyogenes DH-3467 [9],2 ± 0.1 µg/mL
same,MBC/MIC,S. pyogenes DH-3467 [9],1
same,MBC/MIC,E. coli DH-5987 [10],1
same,MIC,E. coli DH-5987 [10],1 ± 0.3 µg/mL
same,melting point,,288 to 290 °C
same,MIC,P. aeruginosa DH-5698 [11],2 ± 0.2 µg/mL
same,MBC/MIC,P. aeruginosa DH-5698 [11],1
same,MIC,A. baumannii DH-243 [12],4 ± 0.4 µg/mL
same,MBC/MIC,A. baumannii DH-243 [12],1
"CCOC(=O)c1ccc(N=Nc2c(N)nn3c(O)c(C#N)c(-c4ccc(Cl)cc4)nc23)cc1 [Compound 10b, Ethyl 4-((2-amino-5-(4-chlorophenyl)-6-cyano-7-hydroxypyrazolo[1,5-a]pyrimidin-3-yl)diazenyl)benzoate]",zone of inhibition at 10000 µM,P. aeruginosa DH-5698 [1],26.3 mm
same,zone of inhibition at 10000 µM,E. coli DH-5987 [2],27.1 mm
same,zone of inhibition at 10000 µM,S. aureus DH-432 [3]; [13],26.8 mm
same,zone of inhibition at 10000 µM,S. pyogenes DH-3467 [4]; [14],26.3 mm
same,zone of inhibition at 10000 µM,E. faecalis DH-5478 [5]; [15],25.1 mm
same,zone of inhibition at 10000 µM,A. baumannii DH-243 [6],24.2 mm
same,MIC,S. aureus DH-432 [7],1.5 ± 0.3 µg/mL
same,MBC/MIC,S. aureus DH-432 [7],0.5
same,MIC,E. faecalis DH-5478 [8],2 ± 0.3 µg/mL
same,MBC/MIC,E. faecalis DH-5478 [8],1
same,MIC,S. pyogenes DH-3467 [9],1.5 ± 0.2 µg/mL
same,MBC/MIC,S. pyogenes DH-3467 [9],0.5
same,MBC/MIC,E. coli DH-5987 [10],0.5
same,MIC,E. coli DH-5987 [10],0.75 ± 0.1 µg/mL
same,melting point,,270 to 272 °C
same,MIC,P. aeruginosa DH-5698 [11],1.5 ± 0.1 µg/mL
same,MBC/MIC,P. aeruginosa DH-5698 [11],0.5
same,MIC,A. baumannii DH-243 [12],2 ± 0.2 µg/mL
same,MBC/MIC,A. baumannii DH-243 [12],1
"CC[C@H]1OC(=O)[C@H](C)[C@@H](O[C@H]2C[C@@](C)(OC)[C@@H](O)[C@H](C)O2)[C@H](C)[C@@H](O[C@@H]2O[C@H](C)C[C@H](N(C)C)[C@H]2O)[C@](C)(O)C[C@@H](C)C(=O)[C@H](C)[C@@H](O)[C@]1(C)O [E, Erythromycin, reference compound]",zone of inhibition at 10000 µM,"S. aureus DH-432 [3]; DH432, read-out: Diameter of Inhibition Zones (AZOI)",12 mm
same,zone of inhibition at 10000 µM,"S. pyogenes DH-3467 [4]; DH3467, read-out: Diameter of Inhibition Zones (AZOI)",10.5 mm
same,zone of inhibition at 10000 µM,"E. faecalis DH-5478 [5]; DH5478, read-out: Diameter of Inhibition Zones (AZOI)",11 mm
same,MIC,S. aureus DH-432 [7],8 ± 0.2 µg/mL
same,MBC/MIC,S. aureus DH-432 [7],2
same,MIC,E. faecalis DH-5478 [8],32 ± 0.1 µg/mL
same,MBC/MIC,E. faecalis DH-5478 [8],4
same,MIC,S. pyogenes DH-3467 [9],64 ± 0.3 µg/mL
same,MBC/MIC,S. pyogenes DH-3467 [9],2
same,MBC,Gram-positive isolates; read-out: MBC,16 to 128 µg/mL
same,MIC,Gram-positive isolates; read-out: MIC,8 to 64 µg/mL
